# Measured values published in EPA's ToxRefDB 2.
# Tests used:
# rat [1] = conditions: Prenatal developmental toxicity study, sprague dawley, Oral, Feed, dose end: 22 GD
# mouse [2] = conditions: Subchronic oral toxicity in rodents, cd1, Feed, dose end: 91 day, group: systemic
# rat [3] = conditions: Prenatal developmental toxicity study, sprague dawley, Oral, Gavage/Intubation, dose end: 21 GD
# rat [4] = conditions: Combined chronic toxicity/carcinogenicity, sprague dawley, Oral, Feed, dose end: 24 month, group: systemic
# rat [5] = conditions: Subchronic oral toxicity in rodents, sprague dawley, Feed, dose end: 14 week, group: systemic
# rat [6] = conditions: Subchronic oral toxicity in rodents, other, Feed, dose end: 13 week, group: systemic
# dog [7] = conditions: Chronic toxicity, beagle, Oral, Feed, dose end: 52 week, group: systemic
# rabbit = conditions: Prenatal developmental toxicity study, new zealand white, Oral, Gavage/Intubation, dose end: 28 GD
# rat [8] = conditions: Subchronic oral toxicity in rodents, sprague dawley, [Not Specified], dose end: 90 day, group: systemic
# rat [9] = conditions: Subchronic oral toxicity in rodents, sprague dawley, Feed, dose end: 13 week, group: systemic
# mouse [10] = conditions: Carcinogenicity; cd1; Oral; Feed; dose end: 18 month; group: systemic; systemic / in life observation / body weight / body weight gain + systemic / in life observation / clinical signs / fur (altered appearance…
# dog [11] = conditions: Subchronic oral toxicity in nonrodent, beagle, Feed, dose end: 13 week, group: systemic, systemic / hematology / anemia / anemia - hemolytic + systemic / hematology / erythrocyte (rbc) count differential / erythrocyte (rbc) + …
# rat [12] = conditions: Prenatal developmental toxicity study, sprague dawley, Oral, Gavage/Intubation, dose end: 21 GD; remark: listed apart in the source
# [13] = group: developmental, systemic / in life observation / body weight / fetal weight
# [14] = group: maternal, systemic / in life observation / body weight / body weight + systemic / in life observation / body weight / body weight gain + systemic / in…
# [15] = group: maternal, systemic / in life observation / body weight / body weight gain
# [16] = systemic / in life observation / body weight / body weight + systemic / in life observation / body weight / body weight gain + systemic / in…
# [17] = systemic / pathology microscopic / spleen / pigmentation
# [18] = systemic / hematology / erythrocyte (rbc) count differential / erythrocyte (rbc) + systemic / hematology / hematocrit (hct) / hematocrit (…
# [19] = systemic / in life observation / body weight / body weight gain
# [20] = systemic / in life observation / body weight / body weight gain + systemic / in life observation / body weight / body weight + systemic / in…
# [21] = systemic / hematology / erythrocyte (rbc) count differential / erythrocyte (rbc) + systemic / hematology / heinz body / heinz body + …
# [22] = systemic / organ weight / liver / absolute + systemic / organ weight / liver / relative to body weight + systemic / organ weight / liver / …
# [23] = group: developmental, developmental / developmental malformation / bone / incomplete ossification + systemic / in life observation / body weight / fetal weight
# [24] = group: maternal, systemic / in life observation / body weight / body weight gain + systemic / in life observation / food consumption / food consumption + …
# [25] = systemic / hematology / methemoglobin / methemoglobin
# [26] = systemic / pathology microscopic / spleen / hematopoietic cell proliferation + systemic / pathology microscopic / spleen / pigmentation
structure (smiles),measurement,setting,value
COC(=O)N(C(=O)N1CO[C@@]2(C(=O)OC)Cc3cc(Cl)ccc3C2=N1)c1ccc(OC(F)(F)F)cc1 [Indoxacarb],LEL,rat [1]; [13],4.14 mg/kg/day
same,LOAEL,rat [1]; [13],4.14 mg/kg/day
same,NEL,rat [1]; [13],2.18 mg/kg/day
same,NOAEL,rat [1]; [13],2.18 mg/kg/day
same,LOAEL,rat [1]; [14],2.18 mg/kg/day
same,NOAEL,rat [1]; [14],1.11 mg/kg/day
same,LEL,rat [1]; [15],1.11 mg/kg/day
same,NEL,rat [1]; [15],< 1.11 mg/kg/day
same,LOAEL,mouse [2]; [16],30 mg/kg/day
same,NOAEL,mouse [2]; [16],16 mg/kg/day
same,LEL,mouse [2]; [17],12 mg/kg/day
same,NEL,mouse [2]; systemic / pathology microscopic / spleen / pigmentation + systemic / pathology microscopic / spleen / hyperplasia,5.5 mg/kg/day
same,LEL,rat [3]; [13],500 mg/kg/day
same,LOAEL,rat [3]; [13],> 1000 mg/kg/day
same,NEL,rat [3]; [13],100 mg/kg/day
same,NOAEL,rat [3]; [13],≥ 1000 mg/kg/day
same,LEL,rat [3]; [14],100 mg/kg/day
same,LOAEL,rat [3]; [14],100 mg/kg/day
same,NEL,rat [3]; [14],10 mg/kg/day
same,NOAEL,rat [3]; [14],10 mg/kg/day
same,LOAEL,rat [4]; [18],2.13 mg/kg/day
same,NOAEL,rat [4]; [18],1.04 mg/kg/day
same,LEL,rat [4]; [17],0.798 mg/kg/day
same,LEL,rat [5]; [19],4.9 mg/kg/day
same,LOAEL,rat [5]; [19],7.5 mg/kg/day
same,NEL,rat [5]; [20],2.5 mg/kg/day
same,NOAEL,rat [5]; [20],3.7 mg/kg/day
same,LEL,rat [6]; [18],1.5 mg/kg/day
same,LOAEL,rat [6]; [16],6.25 mg/kg/day
same,NEL,rat [6]; [16],0.75 mg/kg/day
same,NOAEL,rat [6]; [16],3 mg/kg/day
same,LOAEL,dog [7]; [21],18 mg/kg/day
same,NOAEL,dog [7]; [21],2.3 mg/kg/day
same,LEL,dog [7]; [22],1.3 mg/kg/day
same,NEL,dog [7]; [22],< 1.3 mg/kg/day
same,LEL,rabbit; [23],1000 mg/kg/day
same,LOAEL,rabbit; [23],1000 mg/kg/day
same,NEL,rabbit; [23],500 mg/kg/day
same,NOAEL,rabbit; [23],500 mg/kg/day
same,LOAEL,"rabbit; group: maternal, systemic / in life observation / body weight / body weight gain + systemic / in life observation / food consumption / food consumption",1000 mg/kg/day
same,LEL,rabbit; [24],1000 mg/kg/day
same,NEL,rabbit; [24],500 mg/kg/day
same,NOAEL,rabbit; [24],500 mg/kg/day
same,LEL,rat [8]; [25],0.56 mg/kg/day
same,NEL,rat [8]; [25],< 0.56 mg/kg/day
same,LOAEL,rat [8]; [16],4.1 mg/kg/day
same,NOAEL,rat [8]; [16],1.7 mg/kg/day
same,LOAEL,rat [9]; [16],3.78 mg/kg/day
same,NOAEL,rat [9]; [16],2.13 mg/kg/day
same,LEL,rat [9]; [26],0.76 mg/kg/day
same,NEL,rat [9]; [26],< 0.76 mg/kg/day
same,LEL,mouse [10],13.8 mg/kg/day
same,LOAEL,mouse [10],13.8 mg/kg/day
same,NEL,mouse [10],2.63 mg/kg/day
same,NOAEL,mouse [10],2.63 mg/kg/day
same,LEL,dog [11],19 mg/kg/day
same,LOAEL,dog [11],19 mg/kg/day
same,NEL,dog [11],5 mg/kg/day
same,NOAEL,dog [11],5 mg/kg/day
same,LEL,rat [12]; [13],4 mg/kg/day
same,LOAEL,rat [12]; [13],4 mg/kg/day
same,NEL,rat [12]; [13],2 mg/kg/day
same,NOAEL,rat [12]; [13],2 mg/kg/day
same,LEL,rat [12]; [14],4 mg/kg/day
same,LOAEL,rat [12]; [14],4 mg/kg/day
same,NEL,rat [12]; [14],2 mg/kg/day
same,NOAEL,rat [12]; [14],2 mg/kg/day
